Measurements published in PMC4310329, “The length of a lantibiotic hinge region has profound influence on antimicrobial activity and host specificity” (Frontiers in Microbiology, 2015).

What was measured:
S. aureus = assay: Agar well diffusion assay; format: cell-based, Staphylococcus aureus; conditions: 20 °C; estimated from halo diameter by nisin standard curve, relative to wt
Method: (§1) L. lactis strains were cultured in M17 broth supplemented with 0.5% (w/v) glucose (GM17) or GM17 agar for genetic manipulation or in minimal expression medium (MEM) for protein expression at 30°C (Rink et al., [2005]). E. faecalis, S. aureus, S. pneumonia, and L. monocytogenes were grown in GM17 at 37°C or GM17 agar at different temperatures for agar diffusion assay. M. luteus was grown in Luria-Bertani broth shaken (200 rpm) at 30°C or LB agar at 20°C for agar diffusion assay. Bacillus strains were cultured in Brain Heart Infusion (BHI) shaken (200 rpm) or BHI agar at different temperatures for agar diffusion assay.
(§2) For the agar well diffusion assay, the same cultures as in the MIC value test were used and diluted 200 times with solid media. Identical sizes of wells (7.5 mm diameter) were made and 2 μg of hinge region analogs dissolved in 20 μl 0.05% acetic acid were added. The plates were incubated at different temperatures for at least 1 day until apparent halos appeared. For activity test at low temperature, the indicators were diluted in the same way but poured into smaller plates (52 mm diameter). The plates were incubated at 4°C overnight before the peptides were added. B. sporothermodurans IC4 and B. cereus 4153 were first incubated with the peptides at 4°C for 2 weeks then moved to 30°C and incubated overnight. The diameters of the halos were measured.
(§3) The antimicrobial activity of the hinge region analogs in solid media were tested by an agar well diffusion assay. The diameters of the halos were measured and the residual activity of the analogs were estimated according to the formula of the relationship between the concentration of nisin and the sizes of halos. We made use of the fact that the size of the halo is directly related to the log of nisin concentration. Of course this is an estimate of activity of the variants because any changes in diffusion of the variant bacteriocin or growth rates of indicator bacteria during the assay could also affect the size of the halo. (Table 5 and Supplementary Figure 1). The plates were shown in supplementary data (Supplementary Figures 2–8). […] And against L. lactis at 20°C, the inhibition zone was larger than nisin. […] The M. luteus grows quite fast at room temperature and only the +2 variant retained 55% of the activity of nisin. […]
(§4) To evaluate the activity of nisin on the agar plate, an agar well diffusion assay with gradient of nisin against Lactococcus lactis ( with two plasmids) was performed ( Supplementary Figur e 1 A). The diameter of the halos were measured (Supplementary Figure 1B). […]
(§5) the concentration of nisin is in liner relationship with diameter of the halos ( Supplementary Fi g u re 1C). According to the formula (1) , the relative activity of the peptides compared to nisin can be calculated b y the formula ( 2) .
(§6) Supplementary Figure 1. Relationship between concentration of nisin and diameter of the halos. (A) Agar well diffusion assay. Gradient concentration of nisin were made and dissolved in 30µl 0.05% acetic acid. Lactococcus lactis ( with two plasmids) was cultured overnight and diluted 250 times with GM17 agar before added to the plate. The final concentration of the cells was about 2×10^6 cells/milliliter. The plate was incubated for 1 da y. Concentrations of nisin were labeled. (B) log10 of the concentrati ons and diameters of the halo. (C) A linear curve w as made betw een t he diameters of the halo and log10s of the concentration of nisin. […]

Micrococcus luteus = assay: MIC in liquid culture; format: cell-based; conditions: MIC value of nisin divided by that of the analog
Method: as §1
(§7) The indicator strains were cultured until OD (600 nm) reached 0.5. Before MIC value test, the culture was diluted 1000 times to make the concentration of cells around 5 × 10^5 per milliliter. The test was performed using a temperature controlled plate reader [Tecan200 (Tecan Group AG)] and 96 well plate (Greiner Bio-one). 180 μl indicator strain culture mixed with 20 μl hinge region analogs with final concentration from 0.031 μg/ml–32 μg/ml was incubated at 30°C or 37°C for 18 h. OD (600 nm) was checked every 30 min. For aerobic strains, 2 min of shaking was performed before every check. The concentration of peptide without observed growth of indicator strains was considered as the MIC value.

[1] = test system: Bacillus cereus (L′29) 16; assay: MIC in liquid culture; format: cell-based; conditions: MIC value of nisin divided by that of the analog
Method: as §1, §7

[2] = test system: Streptococcus pneumoniae R6; assay: MIC in liquid culture; format: cell-based; conditions: MIC value of nisin divided by that of the analog
Method: as §1, §7

[3] = test system: Lactococcus lactis MG1363; assay: MIC in liquid culture; format: cell-based; conditions: MIC value of nisin divided by that of the analog
Method: as §1, §7

[4] = test system: Enterococcus faecalis VE14089; assay: MIC in liquid culture; format: cell-based; conditions: MIC value of nisin divided by that of the analog
Method: as §1, §7

Staphylococcus aureus = assay: MIC in liquid culture; format: cell-based; conditions: MIC value of nisin divided by that of the analog
Method: as §1, §7

Bacillus cereus 4147 = assay: MIC in liquid culture; format: cell-based; conditions: MIC value of nisin divided by that of the analog
Method: as §1, §7

Bacillus cereus 4153 = assay: MIC in liquid culture; format: cell-based; conditions: MIC value of nisin divided by that of the analog
Method: as §1, §7

Listeria monocytogenes = assay: MIC in liquid culture; format: cell-based; conditions: MIC value of nisin divided by that of the analog
Method: as §1, §7

Bacillus cereus = assay: Agar well diffusion assay against Bacillus strains (Supplementary Figure 8); format: cell-based; conditions: 30°C for 18 hours, BHI agar, 5 µg nisin or +2 analogue in 50 µl 0.05% acetic acid
Method: The antimicrobial activity of the hinge region analogs in solid media were tested by an agar well diffusion assay. The diameters of the halos were measured and the residual activity of the analogs were estimated according to the formula of the relationship between the concentration of nisin and the sizes of halos. We made use of the fact that the size of the halo is directly related to the log of nisin concentration. Of course this is an estimate of activity of the variants because any changes in diffusion of the variant bacteriocin or growth rates of indicator bacteria during the assay could also affect the size of the halo. (Table 5 and Supplementary Figure 1). The plates were shown in supplementary data (Supplementary Figures 2–8). […] And against L. lactis at 20°C, the inhibition zone was larger than nisin. […] The M. luteus grows quite fast at room temperature and only the +2 variant retained 55% of the activity of nisin.
Supplementary Figure 7.Agar well diffusion assays of hinge region analogues against Bacillus sporotherm odurans IC4 . 2 µg of peptides w ere added per w ell. The plates were incub ated at 30 ° C […]
Supplementary Figure 8.Agar well diffusion assays of hinge region analogues against 4 kinds of Bacillus strains . 5µl overnight culture was mixed with 5ml BHI agar and poured into the plate. […]

B. sporothermodurans IC4 = assay: Agar well diffusion assay; format: cell-based, Bacillus sporothermodurans; conditions: 30 °C; estimated from halo diameter by nisin standard curve, relative to wt
Method: as §1
as §2, with “B. sporothermodurans IC4 and B. cereus 4153 were first incubated with the peptides at 4°C for 2 weeks then moved to 30°C and incubated overnight.” left out
The antimicrobial activity of the hinge region analogs in solid media were tested by an agar well diffusion assay. The diameters of the halos were measured and the residual activity of the analogs were estimated according to the formula of the relationship between the concentration of nisin and the sizes of halos. […]
as §4
the concentration of nisin is in liner relationship with diameter of the halos ( Supplementary Fi g u re 1C). According to the formula (1) , the relative activity of the peptides compared to nisin can be calculated b y the formula ( 2) . […]

L. lactis MG1363 = assay: Agar well diffusion assay; format: cell-based, Lactococcus lactis; conditions: relative to wt
Method: as §1, §2, §3, §4, §5
(§8) Supplementary Figure 1. Relationship between concentration of nisin and diameter of the halos. (A) Agar well diffusion assay. Gradient concentration of nisin were made and dissolved in 30µl 0.05% acetic acid. Lactococcus lactis ( with two plasmids) was cultured overnight and diluted 250 times with GM17 agar before added to the plate. The final concentration of the cells was about 2×10^6 cells/milliliter. The plate was incubated for 1 da y. Concentrations of nisin were labeled. (B) log10 of the concentrati ons and diameters of the halo. (C) A linear curve w as made betw een t he diameters of the halo and log10s of the concentration of nisin.
(§9) (1 picture or pasted object on this page, not shown here)
(§10) Last Name a uthor 1 et al. Running Title
(§11) C = concentration of nisin d° = diameter of the halo of wild t ype […]

E. faecalis VE14089 = assay: Agar well diffusion assay; format: cell-based, Enterococcus faecalis; conditions: estimated from halo diameter by nisin standard curve, relative to wt
Method: as §1, §2, §3, §4, §5, §8, §9, §10, §11

L. monocytogenes = assay: Agar well diffusion assay; format: cell-based, Listeria monocytogenes; conditions: estimated from halo diameter by nisin standard curve, relative to wt
Method: as §1, §2, §3, §4, §5, §8, §9, §10, §11

M. luteus = assay: Agar well diffusion assay; format: cell-based, Micrococcus luteus; conditions: 20 °C; estimated from halo diameter by nisin standard curve, relative to wt
Method: as §1, §2, §3, §4, §5, §6

[5] = test system: Bacillus sporothermodurans IC4; assay: MIC in liquid culture; format: cell-based; conditions: MIC value of nisin divided by that of the analog
Method: as §1, §7

[6] = 20 °C, estimated from halo diameter by nisin standard curve (halo diameter vs log of nisin concentration)
[7] = 30 °C, estimated from halo diameter by nisin standard curve

C=C(NC(=O)[C@@H](NC(=O)[C@H](Cc1c[nH]cn1)NC(=O)[C@@H](NC(=O)[C@H](CO)NC(=O)[C@@H]1CS[C@@H](C)[C@H]2NC(=O)[C@H](C)NC(=O)[C@H](NC(=O)[C@H](CCCCN)NC(=O)[C@H](CCSC)NC(=O)[C@@H](NC(=O)[C@@H](NC(=O)[C@H](CC(N)=O)NC(=O)[C@@H]3CS[C@@H](C)[C@@H](NC(=O)[C@H](CCCCN)NC(=O)[C@@H]4CS[C@@H](C)[C@@H](NC(=O)[C@@H]5CSC[C@@H](NC(=O)/C(=C/C)NC(=O)[C@@H](N)[C@@H](C)CC)C(=O)N[C@@H]([C@@H](C)CC)C(=O)NC(=C)C(=O)N[C@@H](CC(C)C)C(=O)N5)C(=O)N5CCC[C@H]5C(=O)NCC(=O)N4)C(=O)NCC(=O)N[C@@H](C)C(=O)N[C@@H](CC(C)C)C(=O)N[C@@H](CCSC)C(=O)NCC(=O)N3)[C@@H](C)CC)C(C)C)[C@H](C)SC[C@H](NC2=O)C(=O)N[C@@H](Cc2c[nH]cn2)C(=O)N1)[C@@H](C)CC)C(C)C)C(=O)N[C@@H](CCCCN)C(=O)O [+2]
Residual activity (S. aureus): 22%
Residual activity of variants compared to nisin (Micrococcus luteus): 25%
Residual activity of variants compared to nisin [1]: 25%
Residual activity of variants compared to nisin [2]: 25%
Residual activity of variants compared to nisin [3]: 25%
Residual activity of variants compared to nisin [4]: 30%
Residual activity of variants compared to nisin (Staphylococcus aureus): <6%
Residual activity of variants compared to nisin (Bacillus cereus 4147): 50%
Residual activity of variants compared to nisin (Bacillus cereus 4153): 50%
Residual activity of variants compared to nisin (Listeria monocytogenes): 50%
plate activity compared to nisin (Bacillus cereus): either equal or higher plate activity than nisin
Residual activity (B. sporothermodurans IC4): 236%
Residual activity (L. lactis MG1363; [6]): 140%
Residual activity (L. lactis MG1363; [7]): 114%
Residual activity (E. faecalis VE14089; 20 °C): 144%
Residual activity (E. faecalis VE14089; 30 °C): 88%
Residual activity (E. faecalis VE14089; 37 °C): 101%
Residual activity (L. monocytogenes; 20 °C): 139%
Residual activity (L. monocytogenes; 30 °C): 114%
Residual activity (M. luteus): 55%

C=C(NC(=O)[C@@H](NC(=O)[C@H](Cc1c[nH]cn1)NC(=O)[C@@H](NC(=O)[C@H](CO)NC(=O)[C@@H]1CS[C@@H](C)[C@H]2NC(=O)[C@H](C)NC(=O)[C@H](NC(=O)[C@H](CCCCN)NC(=O)[C@H](CC(N)=O)NC(=O)[C@@H]3CS[C@@H](C)[C@@H](NC(=O)[C@H](CCCCN)NC(=O)[C@@H]4CS[C@@H](C)[C@@H](NC(=O)[C@@H]5CSC[C@@H](NC(=O)/C(=C/C)NC(=O)[C@@H](N)[C@@H](C)CC)C(=O)N[C@@H]([C@@H](C)CC)C(=O)NC(=C)C(=O)N[C@@H](CC(C)C)C(=O)N5)C(=O)N5CCC[C@H]5C(=O)NCC(=O)N4)C(=O)NCC(=O)N[C@@H](C)C(=O)N[C@@H](CC(C)C)C(=O)N[C@@H](CCSC)C(=O)NCC(=O)N3)[C@H](C)SC[C@H](NC2=O)C(=O)N[C@@H](Cc2c[nH]cn2)C(=O)N1)[C@@H](C)CC)C(C)C)C(=O)N[C@@H](CCCCN)C(=O)O [−1]
Residual activity (S. aureus): 16%
Residual activity of variants compared to nisin (Micrococcus luteus): <25%
Residual activity of variants compared to nisin [1]: <13%
Residual activity of variants compared to nisin [2]: 25%
Residual activity of variants compared to nisin [3]: 3%
Residual activity of variants compared to nisin [4]: <6%
Residual activity of variants compared to nisin (Staphylococcus aureus): 3%
Residual activity of variants compared to nisin (Bacillus cereus 4147): <13%
Residual activity of variants compared to nisin (Bacillus cereus 4153): <13%
Residual activity of variants compared to nisin [5]: 50%
Residual activity of variants compared to nisin (Listeria monocytogenes): <25%
Residual activity (B. sporothermodurans IC4): 522%
Residual activity (L. lactis MG1363; [6]): 33%
Residual activity (L. lactis MG1363; [7]): 17%
Residual activity (E. faecalis VE14089; 20 °C): 21%
Residual activity (E. faecalis VE14089; 30 °C): 72%
Residual activity (E. faecalis VE14089; 37 °C): 140%
Residual activity (L. monocytogenes; 20 °C): 19%
Residual activity (L. monocytogenes; 30 °C): 29%
Residual activity (M. luteus): 0%
